{"source": "patent US7989495B2", "about": "“Compositions and methods for inhibiting NF-κB mediated tumorigenicity and adhesion dependent survival of cancer cells” (University of Utah Research Foundation, priority 2002, dated 2011)", "key": {"[1]": {"tested_on": "NF-κB (p65) binding to NF-κB consensus oligonucleotides", "assay": "NF-κB binding activity assay (Trans-AM) on lysates of treated HT-29 cells", "assay_type": "cell-based", "protocol": "The transiently suspended cells were lysed and allowed to bind to DNA oligonucleotides, containing the NF-κB consensus binding site, that were immobilized to 96-well plates. NF-κB protein bound to the oligonucleotides was detected by an antibody to the p65 subunit that only recognized p65 that is bound to DNA. The positive control was HeLa cells that were stimulated with TNFα A control was performed using excess free NF-κB oligonucleotides (Competitor). […] NF-κB binding activity was determined by the TransAM assay as in FIG. 5A. […] The data shown represent typical results of three separate experiments. […] An immunoblot for COX-2 was performed.\nActivation of NF-κB was also determined using the Trans-AM™ assay (Active Motif, Carlsbad, Calif.) per the manufacturer's instructions. (Renard et al., 2001) Briefly, cell monolayers on 60 mm dishes were washed with ice-cold PBS and removed by incubating in trypsin-PBS or scraping. The cells were centrifuged for 10 minutes at 1,000 rpm at 4° C. and resuspended for 10 minutes in 100 μl of 4° C. lysis buffer (20 mM HEPES (pH 7.5), 350 mM NaCl, 20% glycerol, 1% Igepal-CA630, 1 mM MgCl2, 0.5 mM EDTA, 0.1 mM EGTA, 1 μl of 1 M dithiothreitol and 10 μl of protease inhibitor cocktail (proprietary) per ml of lysis buffer). The lysates were centrifuged for 20 minutes at 14,000 g at 4° C. Lysates containing 5 μg of total protein were added to 20 μl of lysis buffer per well in 96-well dishes containing immobilized oligonucleotides corresponding to the NF-κB consensus DNA binding site (5′-GGGACTTTCC-3′) (SEQ ID NO:2). The plate was covered with an adhesive film and incubated for 1 hour at room temperature on a rocker. The wells were then washed three times with 200 μl per well of washing buffer (100 mM phosphate buffer (pH 7.5), 500 mM NaCl, 1% Tween). 100 μl of p65subunit monoclonal antibody (the p65 antibody supplied with the kit only recognizes p65-containing NF-κB heterodimers that are bound to DNA containing the NF-κB consensus binding sequence) was diluted 1:1,000 in 1× antibody binding buffer (4 mM HEPES (pH 7.5), 120 mM KCl, 8% glycerol, 1% bovine serum albumin) and added to each well and incubated for 1 hour at room temperature. The wells were washed with 100 μl of washing buffer three times. 100 μl of horseradish peroxidase-conjugated secondary antibody diluted 1:1,000 in 1× antibody binding buffer was added to each well and incubated for 1 hour at room temperature without agitation. […] 100 μl of stop solution (0.5 M H2SO4) was added to each well after which the absorbance was determined on a plate spectrophotometer at 450 nm. Specificity of binding was determined using 200-fold excess wildtype NF-κB oligonucleotides added at the time the cell lysates were added to the wells. […]"}, "[2]": {"tested_on": "HCT-116 cells injected intraperitoneally", "assay": "Intraabdominal seeding (metastasis) model in athymic mice", "assay_type": "in vivo", "conditions": "HCT-116 intraperitoneal; pretreated, then twice weekly; after 21 days", "excerpt": "(§1) FIGS. 6A, B, C show tumor implants of the liver of three athymic mice 21 days after receiving intraperitoneal injections of HT-29 cells. The mice were pretreated and treated for a total of 21 days with DMSO twice weekly. […] The mouse was pretreated and treated for a total of 21 days with DMSO twice weekly. […] This section was obtained from the tumor implant from the mouse in FIG. 6A. […] FIG. 6G, (liver), FIG. 6H, (abdominal wall), and FIG. 6I, (intestinal) show tumor implants in three athymic mice 21 days after receiving intraabdominal injections of HCT-116 cells. All of the mice were treated with 5 mg/kg of BAY 11-7085 twice weekly.\n(§2) HT-29 and HCT-116 cells were harvested in 0.25% trypsin-PBS-EDTA, washed once in media and PBS, and resuspended in PBS at 1 million cells per 200 μL. One million cells were injected either subcutaneously in the backs or intraperitoneally in 5 week old female nu/nu athymic mice (Charles River Labs). For the mice with subcutaneous tumors, the tumors were allowed to establish themselves for 10 days after which they were randomized to BAY 11-7085 or DMSO. For the mice with intraperitoneal tumors, the mice received DMSO or BAY 11-7085 (5 mg/kg) 24 hours before the cancer cells were injected intrapentoneally. All mice received BAY 11-7085 (5 mg/kg) or an equal volume of DMSO (˜200 μL) twice weekly for 21-32 days. Subcutaneous tumor sizes were determined by measuring the length and width with calipers. These studies were approved by the U. of Utah Institutional Review Board and Institutional Animal Care and Use Committee and performed in the Animal Resource Center. Mice were euthanized when they experienced a greater than 10% loss in body weight or if they appeared ill. […]\n(§3) Since BAY 11-7085 induced apoptosis of readherent HT-29 cells, an in vivo model was used to test the ability of the drug to prevent metastasis by seeding of intraabdominal tissue with colon cancer cells. […] Seeding results from the transient suspension of cancer cells, through a loss of adhesion either naturally ro because of surgical displacement, followed by readhesion to other tissues. […]"}, "[3]": {"tested_on": "HT-29 cells injected intraperitoneally", "assay": "Intraabdominal seeding (metastasis) model in athymic mice", "assay_type": "in vivo", "conditions": "HT-29 intraperitoneal; pretreated 24 hours earlier, then twice weekly, 21 days; n = 6", "excerpt": "as §1, §2, §3"}}, "note": "Several values for one entry are separate records, joined by “and”; a condition that tells them apart may be missing. Equal entries are not always repeated."}
{"compound": "CC(C)(C)c1ccc(S(=O)(=O)/C=C/C#N)cc1", "note": "[BAY 11-7085, (2E)-3-[4-(tertiarybutylphenyl)sulfonyl]-2-propenenitrile]", "values": [{"measurement": "constitutive NF-κB activation in adherent cells", "setting": "[1]; adherent HT-29, increasing concentrations, 8 hours", "result": "relatively unaffected"}, {"measurement": "inhibition of constitutive NF-κB activation in adherent cells", "setting": "[1]; adherent colon cancer cells, doses up to 50 μM", "result": "could not be inhibited"}, {"measurement": "inhibition of NF-κB activation caused by readhesion", "setting": "[1]; transiently suspended HT-29, increasing concentrations, 8 hours", "result": "dose-related inhibition of this NF-κB activation"}, {"measurement": "inhibition of NF-κB activation induced by readhesion", "setting": "[1]; transiently suspended colon cancer cells, as little as 10 μM", "result": "almost totally inhibited"}, {"measurement": "metastases of parietal and visceral peritoneum", "setting": "[2]", "result": "clear evidence of metastases"}, {"measurement": "Liver Metastases (mice with metastases / mice)", "setting": "[3]", "result": "none of the 6 and 0/6"}, {"measurement": "Peritoneal Metastases (mice with metastases / mice)", "setting": "[3]", "result": "2 of 6 and 2/6"}]}
